Measurements published in US7759345B2, “Antitumoral derivatives of ET-743” (priority 2001, dated 2010).

Legend:
Type in all cases: cell-based
HT-29 = assay: Inhibition of cells growth by colorimetric assay (SRB), HT-29; conditions: SRB, 48 hours exposure; for GI50 / LC50 (concentration for 50% cell killing): Homo sapiens, HT-29, 48 h; for HT-29 TGI / GI50: HT-29; for GI50: read-out: HT-29 GI50; for LC50 (concentration for 50% cell killing): read-out: HT-29 LC50, HT-29
How it was run: (§1)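 5×10^3 cells/well; 18 h attach; compound 10–10^−8 μg/ml in DMSO/EtOH/PBS (0.5:0.5:99), 48 h, 37 °C, 5% CO2; cold 50% TCA fix 60 min 4 °C; 0.4% SRB 10 min RT; Tris solubilization; OD 490 nm; triplicates.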

SK-MEL-28 = assay: Inhibition of cells growth by colorimetric assay (SRB), SK-MEL-28; conditions: SRB, 48 hours exposure; for GI50 / CC50: Homo sapiens, SK-MEL-28, 48 h; for GI50 / MEL-28 TGI: MEL-28; for GI50: read-out: MEL-28 GI50; for CC50: read-out: MEL-28 LC50, MEL-28
How it was run: as §1

PANC-1 = assay: Inhibition of cells growth by colorimetric assay (SRB), PANC-1; conditions: SRB, 48 hours exposure; for GI50 / LC50 (concentration for 50% net cell kill): Homo sapiens, PANC-1, 48 h; for GI50 / PANC-1 TGI: PANC-1; for GI50: read-out: PANC-1 GI50; for LC50 (concentration for 50% net cell kill): read-out: PANC-1 LC50, PANC-1
Description: (§2) 2°.—Inhibition of Cells Growth by Colorimetric Assay.
(§3) A colorimetric type of assay, using sulforhodamine B (SRB) reaction has been adapted for a quantitative measurement of cell growth and viability [following the technique described by Philip Skehan, et al. (1990), New colorimetric cytotoxicity assay for anticancer drug screening, J. Natl. Cancer Inst., 82:1107-1112]
(§4) This form of the assay employs 96 well cell culture microplates of 9 mm diameter (Faircloth, 1988; Mosmann, 1983). Most of the cell lines are obtained from American Type Culture Collection (ATCC) derived from different human cancer types.
(§5) Cells are maintained in RPMI 1640 10% FBS, supplemented with 0.1 g/l penicillin and 0.1 g/l streptomycin sulfate and then incubated at 37° C., 5% CO2 and 98% humidity. For the experiments, cells were harvested from subconfluent cultures using trypsin and resuspended in fresh medium before plating.
(§6) Cells are seeded in 96 well microtiter plates, at 5×10^3 cells per well in aliquots of 195 μl medium, and they are allowed to attach to the plate surface by growing in drug free medium for 18 hours. Afterward, samples are added in aliquots of 5 μl in a ranging from 10 to 10^−8 μg/ml, dissolved in DMSO/EtOH/PBS (0.5:0.5:99). After 48 hours exposure, the antitumor effect are measured by the SRB methodology: cells are fixed by adding 50 μl of cold 50% (wt/vol) trichloroacetic acid (TCA) and incubating for 60 minutes at 4° C. Plates are washed with deionized water and dried. One hundred μl of SRB solution (0.4% wt/vol in 1% acetic acid) is added to each microtiter well and incubated for 10 minutes at room temperature. Unbound SRB is removed by washing with 1% acetic acid. Plates are air dried and bound stain is solubilized with Tris buffer. Optical densities are read on a automated spectrophotometric plate reader at a single wavelength of 490 nm.
(§7) The values for mean+/−SD of data from triplicate wells are calculated. Some parameters for cellular responses can be calculated: GI=growth inhibition, TGI=total growth inhibition (cytostatic effect) and LC=cell killing (cytotoxic effect).
(§8) Obtained results may predict the usefulness of a certain drug as a potential cancer treatment. For this technique, compounds which show GI50 values smaller than 10 μg/ml are selected to continue with further studies. GI50's data allow to predict that not only could a drug be cystostatic, but also it could have a potential in terms of tumor reduction.

DU-145 = assay: Inhibition of cells growth by colorimetric assay (SRB), DU-145; conditions: SRB, 48 hours exposure; for GI50 / CC50: Homo sapiens, DU-145, 48 h; for DU-145 TGI / GI50: DU-145; for GI50: read-out: DU-145 GI50; for CC50: read-out: DU-145 LC50, DU-145
Description: as §2, §3, §4, §5, §6, §7, §8

LNCaP = assay: Inhibition of cells growth by colorimetric assay (SRB), LNCaP; conditions: SRB, 48 hours exposure; for GI50 / CC50: Homo sapiens, LNCaP, 48 h; for GI50: read-out: LNCAP GI50, LNCAP; for CC50: read-out: LNCAP LC50, LNCAP
Description: as §2, §3, §4, §5, §6, §7, §8

IGROV-ET = assay: Inhibition of cells growth by colorimetric assay (SRB), IGROV-ET; conditions: SRB, 48 hours exposure; for GI50 / CC50: Homo sapiens, 48 h; for GI50 / IGROV-ET TGI: IGROV-ET; for GI50: read-out: IGROV-ET GI50; for CC50: read-out: IGROV-ET LC50, IGROV-ET
Description: as §2, §3, §4, §5, §6, §7, §8

SK-OV-3 = assay: Inhibition of cells growth by colorimetric assay (SRB), SK-OV-3; conditions: SRB, 48 hours exposure; for GI50 / LC50: Homo sapiens, SK-OV-3, 48 h; for GI50 / SK-OV3 TGI: SK-OV3; for GI50: read-out: SK-OV3 GI50; for LC50: read-out: SK-OV3 LC50, SK-OV3
Description: as §2, §3, §4, §5, §6, §7, §8

A-549 = assay: Inhibition of cells growth by colorimetric assay (SRB), A-549; conditions: SRB, 48 hours exposure; for GI50 / LC50 (concentration for 50% cell killing): Homo sapiens, A549, 48 h; for A-549 TGI / GI50: A-549; for GI50: read-out: A-549 GI50; for LC50 (concentration for 50% cell killing): read-out: A-549 LC50, A-549
How it was run: as §1

IGROV-1 = assay: Inhibition of cells growth by colorimetric assay (SRB), IGROV-1; conditions: SRB, 48 hours exposure; for GI50 / CC50: Homo sapiens, IGROV-1, 48 h; for GI50 / IGROV TGI: IGROV; for GI50: read-out: IGROV GI50; for CC50: read-out: IGROV LC50, IGROV
Description: as §2, §3, §4, §5, §6, §7, §8

K-562 = assay: Inhibition of cells growth by colorimetric assay (SRB), K-562; conditions: SRB, 48 hours exposure; for GI50 / LC50 (50% cell killing): Homo sapiens, K562, 48 h; for GI50 / K-562 TGI: K-562; for GI50: read-out: K-562 GI50; for LC50 (50% cell killing): read-out: K-562 LC50, K-562
Description: as §2, §3, §4, §5, §6, §7, §8

SK-BR-3 = assay: Inhibition of cells growth by colorimetric assay (SRB), SK-BR-3; conditions: SRB, 48 hours exposure; for GI50 / CC50: Homo sapiens, SK-BR-3, 48 h; for GI50 / SK-BR3 TGI: SK-BR3; for GI50: read-out: SK-BR3 GI50; for CC50: read-out: SK-BR3 LC50, SK-BR3
Description: as §2, §3, §4, §5, §6, §7, §8

HMEC1 = assay: Inhibition of cells growth by colorimetric assay (SRB), HMEC1; conditions: SRB, 48 hours exposure; for GI50 / LC50: Homo sapiens, HMEC-1, 48 h; for HMEC-1 TGI / GI50: HMEC-1; for GI50: read-out: HMEC-1 GI50; for LC50: read-out: HMEC-1 LC50, HMEC-1
Description: as §2, §3, §4, §5, §6, §7, §8

LoVo = assay: Inhibition of cells growth by colorimetric assay (SRB), LoVo; conditions: SRB, 48 hours exposure; for GI50 / LC50 (concentration for 50% cell killing): Homo sapiens, LoVo, 48 h; for GI50 / LOVO TGI: LOVO; for GI50: read-out: LOVO GI50; for LC50 (concentration for 50% cell killing): read-out: LOVO LC50, LOVO
Description: as §2, §3, §4, §5, §6, §7, §8

LoVo-Dox = assay: Inhibition of cells growth by colorimetric assay (SRB), LoVo-Dox; conditions: SRB, 48 hours exposure; for GI50 / CC50: Homo sapiens, 48 h; for GI50 / LOVO-DOX TGI: LOVO-DOX; for GI50: read-out: LOVO-DOX GI50; for CC50: read-out: LOVO-DOX LC50, LOVO-DOX
Description: as §2, §3, §4, §5, §6, §7, §8

`C=COC(=O)N1CCc2cc(O)c(OC)cc2[C@@]12CS[C@@H]1c3c(OC(C)=O)c(C)c4c(c3[C@H](COC2=O)N2C1[C@H]1c3c(cc(C)c(OC)c3O)C[C@@H]([C@@H]2O)N1C)OCO4` (stereo partly drawn) [Compound 95] was tested, and the “HT-29 TGI” value (HT-29) was 1.27E-07, the GI50 (HT-29) was 40.4 nM and the LC50 (concentration for 50% cell killing) (HT-29) was 12000 nM. For the same compound, the GI50 (SK-MEL-28) was 25.2 nM, the CC50 (SK-MEL-28) was 83.2 nM and the “MEL-28 TGI” value (SK-MEL-28) was 4.58E-08. For the same compound, the GI50 (PANC-1) was 38.8 nM, the LC50 (concentration for 50% net cell kill) (PANC-1) was 1090 nM and the “PANC-1 TGI” value (PANC-1) was 1.08E-07. The “DU-145 TGI” value (DU-145) was 8.92E-08, the GI50 (DU-145) was 37.6 nM and the CC50 (DU-145) was 1010 nM. The GI50 (LNCaP) was 17.7 nM, the CC50 (LNCaP) was 66 nM and the “LNCAP TGI” value (LNCaP) was 3.41E-08. For the same compound, the GI50 (IGROV-ET) was 50.5 nM, the CC50 (IGROV-ET) was 12000 nM and the “IGROV-ET TGI” value (IGROV-ET) was 1.16E-07. For the same compound, the GI50 (SK-OV-3) was 28.1 nM, the LC50 (SK-OV-3) was 368 nM and the “SK-OV3 TGI” value (SK-OV-3) was 6.59E-08. For the same compound, the “A-549 TGI” value (A-549) was 5.55E-08, the GI50 (A-549) was 26.8 nM and the LC50 (concentration for 50% cell killing) (A-549) was 147 nM. The GI50 (IGROV-1) was 28 nM, the CC50 (IGROV-1) was 1090 nM and the “IGROV TGI” value (IGROV-1) was 6.67E-08. For the same compound, the GI50 (K-562) was 15.3 nM, the LC50 (50% cell killing) (K-562) was 2220 nM and the “K-562 TGI” value (K-562) was 5.30E-08. For the same compound, the GI50 (SK-BR-3) was 29.8 nM, the CC50 (SK-BR-3) was 522 nM and the “SK-BR3 TGI” value (SK-BR-3) was 7.62E-08. The “HMEC-1 TGI” value (HMEC1) was 2.80E-08, the GI50 (HMEC1) was 9.36 nM and the LC50 (HMEC1) was 75.6 nM. The GI50 (LoVo) was 26.2 nM, the LC50 (concentration for 50% cell killing) (LoVo) was 111 nM and the “LOVO TGI” value (LoVo) was 5.40E-08. The GI50 (LoVo-Dox) was 240 nM, the CC50 (LoVo-Dox) was 12000 nM and the “LOVO-DOX TGI” value (LoVo-Dox) was 8.68E-07.

For `C=COC(=O)Oc1cc2c(cc1OC)[C@@]1(CS[C@@H]3c4c(OC(C)=O)c(C)c5c(c4[C@H](COC1=O)N1C3[C@H]3c4c(cc(C)c(OC)c4O)C[C@@H]([C@@H]1O)N3C)OCO5)N(C(=O)OC=C)CC2` (stereo partly drawn) [Compound 100], the “HT-29 TGI” value (HT-29) was 8.07E-08, the GI50 (HT-29) was 35 nM and the LC50 (concentration for 50% cell killing) (HT-29) was 11100 nM. The GI50 (SK-MEL-28) was 26.5 nM, the CC50 (SK-MEL-28) was 95.9 nM and the “MEL-28 TGI” value (SK-MEL-28) was 5.04E-08. For the same compound, the GI50 (PANC-1) was 41.4 nM, the LC50 (concentration for 50% net cell kill) (PANC-1) was 8320 nM and the “PANC-1 TGI” value (PANC-1) was 1.14E-08. The “DU-145 TGI” value (DU-145) was 1.03E-07, the GI50 (DU-145) was 43.1 nM and the CC50 (DU-145) was 8320 nM. For the same compound, the GI50 (LNCaP) was 21.5 nM, the CC50 (LNCaP) was 66.5 nM and the “LNCAP TGI” value (LNCaP) was 3.79E-08. The GI50 (IGROV-ET) was 63.2 nM, the CC50 (IGROV-ET) was 11100 nM and the “IGROV-ET TGI” value (IGROV-ET) was 7.41E-07. For the same compound, the GI50 (SK-OV-3) was 28.2 nM, the LC50 (SK-OV-3) was 111 nM and the “SK-OV3 TGI” value (SK-OV-3) was 5.74E-08. The “A-549 TGI” value (A-549) was 6.20E-08, the GI50 (A-549) was 29.8 nM and the LC50 (concentration for 50% cell killing) (A-549) was 112 nM. For the same compound, the GI50 (IGROV-1) was 35.1 nM, the CC50 (IGROV-1) was 915 nM and the “IGROV TGI” value (IGROV-1) was 6.54E-08. The GI50 (K-562) was 36.4 nM, the LC50 (50% cell killing) (K-562) was 106 nM and the “K-562 TGI” value (K-562) was 6.20E-08. The GI50 (SK-BR-3) was 40.5 nM, the CC50 (SK-BR-3) was 1720 nM and the “SK-BR3 TGI” value (SK-BR-3) was 9.87E-08. For the same compound, the “HMEC-1 TGI” value (HMEC1) was 5.14E-08, the GI50 (HMEC1) was 27.5 nM and the LC50 (HMEC1) was 96.1 nM. The GI50 (LoVo) was 24.4 nM, the LC50 (concentration for 50% cell killing) (LoVo) was 82.3 nM and the “LOVO TGI” value (LoVo) was 4.48E-08. For the same compound, the GI50 (LoVo-Dox) was 392 nM, the CC50 (LoVo-Dox) was 11100 nM and the “LOVO-DOX TGI” value (LoVo-Dox) was 2.73E-06.
